From patent publication US11236046B2, “Substituted heterocyclic sulfonamide compounds useful as TRPA1 modulators” (Genentech, Inc., priority 2013, dated 2022)

Assays:
human TRPA1 [1] = target: T1, human TRPA1 (Homo sapiens (Human), UniProt O75762); test: IC50 determination on the human TRPA1 channel, calcium fluorescence (Hamamatsu FDSS plate reader); type: cell-based; conditions: CHO cells expressing human TRPA1; block of cinnamaldehyde induced calcium influx; 20 minutes compound incubation; Hill coefficient fixed to 1.5; read-out: hTRPA1 AUC IC50
T1 sequence (O75762 whole entry): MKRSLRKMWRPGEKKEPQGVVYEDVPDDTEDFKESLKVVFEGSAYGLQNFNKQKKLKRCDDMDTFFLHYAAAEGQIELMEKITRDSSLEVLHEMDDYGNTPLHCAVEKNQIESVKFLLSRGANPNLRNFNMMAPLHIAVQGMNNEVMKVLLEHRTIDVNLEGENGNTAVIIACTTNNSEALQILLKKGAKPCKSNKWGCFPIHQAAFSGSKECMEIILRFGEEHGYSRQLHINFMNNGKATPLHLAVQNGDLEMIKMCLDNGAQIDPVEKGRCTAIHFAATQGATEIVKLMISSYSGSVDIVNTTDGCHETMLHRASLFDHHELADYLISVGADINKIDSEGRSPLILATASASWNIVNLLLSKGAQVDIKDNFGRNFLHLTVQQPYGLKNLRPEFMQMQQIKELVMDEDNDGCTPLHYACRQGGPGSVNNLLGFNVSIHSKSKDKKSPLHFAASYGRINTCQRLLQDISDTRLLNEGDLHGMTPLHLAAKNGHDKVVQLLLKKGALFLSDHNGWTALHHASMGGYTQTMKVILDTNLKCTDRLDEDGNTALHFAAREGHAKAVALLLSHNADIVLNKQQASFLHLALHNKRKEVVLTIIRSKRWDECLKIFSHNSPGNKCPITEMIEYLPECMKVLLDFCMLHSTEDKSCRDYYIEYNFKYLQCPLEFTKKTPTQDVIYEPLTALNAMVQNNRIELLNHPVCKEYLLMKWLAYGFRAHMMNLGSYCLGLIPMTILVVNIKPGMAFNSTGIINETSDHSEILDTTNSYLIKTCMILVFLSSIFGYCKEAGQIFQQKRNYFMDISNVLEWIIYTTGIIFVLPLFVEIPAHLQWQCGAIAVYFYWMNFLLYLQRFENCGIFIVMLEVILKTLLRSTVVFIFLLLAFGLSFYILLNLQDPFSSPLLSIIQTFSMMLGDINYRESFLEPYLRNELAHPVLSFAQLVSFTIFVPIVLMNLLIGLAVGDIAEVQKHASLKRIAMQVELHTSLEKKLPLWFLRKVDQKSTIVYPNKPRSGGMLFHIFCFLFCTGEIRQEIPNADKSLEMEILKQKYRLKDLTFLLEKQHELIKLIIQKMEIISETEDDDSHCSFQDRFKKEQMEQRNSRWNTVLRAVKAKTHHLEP
Protocol: IC50s (effective concentration) of compounds on the human TRPA1 channel were determined using a Hamamatsu FDSS fluorescence plate reader. CHO cells expressing human TRPA1 were plated into 384-well plates, incubated overnight at 37 C, and loaded with BD calcium indicator dye for 1 hr at 37° C. followed by 15 minutes. at room temperature. The assay buffer was Hank's Balanced Salt Solution (HBSS) containing 20 mM HEPES (pH readjusted to 7.4) along with 0.02% BSA.
Following dye load and plate cool down, compounds were added to the cells using the FDSS while monitoring fluorescence to determine whether any of the test compounds have TRPA1 agonist activity. Plates were then incubated with compound for 20 minutes at room temperature prior to adding agonist. Following this incubation, […] cinnamaldehyde was added to all wells of the plate and block of this cinnamaldehyde induced calcium influx was measured.
Fixing the Hill coefficient will generally reduce variability of the IC50 determination. The IC50s were examined by eye to make sure the MIN and MAX points were set correctly prior to validation of the results.

human TRPA1 [2] = target: T1, human TRPA1; test: FLIPR Tetra calcium influx assay, block of cinnamaldehyde-induced calcium influx in CHO cells expressing TRPA1 (human); type: cell-based; conditions: 20 min compound incubation, 75 uM cinnamaldehyde (~EC80), Hill coefficient fixed to 1.5, read-out: hTRPA1 AUC IC50
How it was run: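 CHO cells loaded with calcium dye, preincubated with compounds 20 min at room temperature in HBSS/20 mM HEPES pH 7.4 with 0.02% BSA. Channels activated by ~EC80 cinnamaldehyde (75 uM human, 45 uM rat); block of calcium influx read on FLIPR Tetra, IC50 fitted with fixed Hill coefficient.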

Compound | IC50 (human TRPA1 [1]) [nM] | IC50 (human TRPA1 [2]) [nM]
O=C(NCc1cc(C2=CCC(C(F)(F)F)CC2)ncn1)[C@@H]1C[C@@H](F)CN1S(=O)(=O)c1ccc(F)cc1 (stereo partly drawn) [Example 12, (2S,4R)-4-fluoro-1-(4-fluorophenylsulfonyl)-N-((6-(4-(trifluoromethyl)cyclohex-1-enyl)pyrimidin-4-yl)methyl)pyrrolidine-2-carboxamide] | 30 | –
O=C(NCc1cc(-c2ccc(C(F)(F)F)cc2)ncn1)[C@@H]1C[C@@H](F)CN1S(=O)(=O)c1ccc(F)c(F)c1 [Example 26, (2S,4R)-1-(3,4-difluorophenylsulfonyl)-4-fluoro-N-((6-(4-(trifluoromethyl)phenyl)pyrimidin-4-yl)methyl)pyrrolidine-2-carboxamide] | 30 | –
N#C[C@@]1(C(=O)NCc2cc(-c3ccc(C(F)(F)F)nc3)ncn2)CCCN1S(=O)(=O)c1ccc(F)cc1 [Example 32, (R)-2-cyano-1-(4-fluorophenylsulfonyl)-N-((6-(6-(trifluoromethyl)pyridin-3-yl)pyrimidin-4-yl)methyl)pyrrolidine-2-carboxamide] | 867 | –
O=C(NCc1cc(-c2ccc(C(F)(F)F)nc2)ncn1)[C@]1(CO)CCCN1S(=O)(=O)c1ccc(F)cc1 [Example 7, (R)-1-(4-fluorophenylsulfonyl)-2-(hydroxymethyl)-N-((6-(6-(trifluoromethyl)pyridin-3-yl)pyrimidin-4-yl)methyl)pyrrolidine-2-carboxamide] | 284 | –
O=C(NCc1cc(N2CCC(C(F)(F)F)CC2)c(F)cn1)[C@@H]1C[C@@H](F)CN1S(=O)(=O)c1ccc(F)cc1 [Example 37, (2S,4R)-4-fluoro-N-((5-fluoro-4-(4-(trifluoromethyl)piperidin-1-yl)pyridin-2-yl)methyl)-1-(4-fluorophenylsulfonyl)pyrrolidine-2-carboxamide] | 21 | –
O=C(NCc1cc(-c2ccc(C(F)(F)F)nc2)ncn1)[C@@H]1[C@H](F)CCN1S(=O)(=O)c1ccc(F)cc1 [Example 36, (2R,3R)-3-fluoro-1-(4-fluorophenylsulfonyl)-N-((6-(6-(trifluoromethyl)pyridin-3-yl)pyrimidin-4-yl)methyl)pyrrolidine-2-carboxamide] | 120 | –
O=C(NCc1cc(-c2ccc(C(F)(F)F)nc2)ncn1)[C@@H]1C[C@H](F)CN1S(=O)(=O)c1ccc(F)cc1 [Example 4, (2S,4S)-4-fluoro-1-(4-fluorophenylsulfonyl)-N-((6-(6-(trifluoromethyl)pyridin-3-yl)pyrimidin-4-yl)methyl)pyrrolidine-2-carboxamide] | 819 | –
O=C(NCc1cc(-c2ccc(SC(F)(F)F)cc2)ncn1)[C@@H]1C[C@@H](F)CN1S(=O)(=O)c1ccc(F)cc1 [Example 29, (2S,4R)-4-fluoro-1-(4-fluorophenylsulfonyl)-N-((6-(4-(trifluoromethylthio)phenyl)pyrimidin-4-yl)methyl)pyrrolidine-2-carboxamide] | 32 | –
C[C@@]1(C(=O)NCc2cc(-c3ccc(C(F)(F)F)cc3)ncn2)C[C@@H](F)CN1S(=O)(=O)c1ccc(F)cc1 (single isomer, unassigned) [Example 20] | 7 | –
C[C@@]1(C(=O)NCc2cc(-c3ccc(C(F)(F)F)cn3)ncn2)CCCN1S(=O)(=O)c1ccc(F)cc1 [Example 14, (S)-1-(4-fluorophenylsulfonyl)-2-methyl-N-((6-(5-(trifluoromethyl)pyridin-2-yl)pyrimidin-4-yl)methyl)pyrrolidine-2-carboxamide] | 268 | –
O=C(NCc1cc(-c2ccc(C3CC3)nc2)ncn1)[C@@H]1C[C@@H](F)CN1S(=O)(=O)c1ccc(F)cc1 [Example 23, (2S,4R)—N-((6-(6-cyclopropylpyridin-3-yl)pyrimidin-4-yl)methyl)-4-fluoro-1-(4-fluorophenylsulfonyl)pyrrolidine-2-carboxamide] | 2700 | –
O=C(NCc1cn(-c2ccc(C(F)(F)F)nc2)nc1C1CC1)[C@@H]1C[C@@H](F)CN1S(=O)(=O)c1ccc(F)cc1 [Example 17, (2S,4R)—N-([3-cyclopropyl-1-[6-(trifluoromethyl)pyridin-3-yl]-1H-pyrazol-4-yl]methyl)-4-fluoro-1-[(4-fluorobenzene)sulfonyl]pyrrolidine-2-carboxamide] | 55 | –
O=C(NCc1cc(-c2ccc(C(F)(F)F)nc2)ncn1)[C@@H]1C[C@@H](F)CN1S(=O)(=O)c1cncc(F)c1 [Example 27, (2S,4R)-4-fluoro-1-(5-fluoropyridin-3-ylsulfonyl)-N-((6-(6-(trifluoromethyl)pyridin-3-yl)pyrimidin-4-yl)methyl)pyrrolidine-2-carboxamide] | 3000 | –
C[C@@]1(C(=O)NCc2cc(-c3ccc(C(F)(F)F)nc3)ncn2)CCCN1S(=O)(=O)c1ccc(F)cc1 [Example 1, (S)-1-(4-fluorophenylsulfonyl)-2-methyl-N-((6-(6-(trifluoromethyl)pyridin-3-yl)pyrimidin-4-yl)methyl)pyrrolidine-2-carboxamide] | 51 | –
C[C@@]1(C(=O)NCc2cc(-c3ccc(C(F)(F)F)nc3)ncn2)CCN1S(=O)(=O)c1ccc(F)cc1 [Example 2, (S)-1-(4-fluorophenylsulfonyl)-2-methyl-N-((6-(6-(trifluoromethyl)pyridin-3-yl)pyrimidin-4-yl)methyl)azetidine-2-carboxamide] | 59 | –
C[C@@]1(C(=O)NCc2cc(-c3ccc(C(F)(F)F)nc3)ncn2)C[C@@H](F)CN1S(=O)(=O)c1ccc(F)cc1 (single isomer, unassigned) [Example 19] | 16 | –
O=C(NCc1cc(-c2ccc(C(F)(F)F)nc2)ncc1F)[C@@H]1C[C@@H](F)CN1S(=O)(=O)c1ccc(F)cc1 [Example 8, (2S,4R)-4-fluoro-N-((5-fluoro-6′-(trifluoromethyl)-2,3′-bipyridin-4-yl)methyl)-1-(4-fluorophenylsulfonyl)pyrrolidine-2-carboxamide] | 17 | –
O=C(NCc1cc(-c2ccc(C(F)(F)F)nc2)ncn1)[C@@H]1C[C@@H](F)CN1S(=O)(=O)c1ccc(Cl)s1 [Example 24, (2S,4R)-1-(5-chlorothiophen-2-ylsulfonyl)-4-fluoro-N-((6-(6-(trifluoromethyl)pyridin-3-yl)pyrimidin-4-yl)methyl)pyrrolidine-2-carboxamide] | 27 | –
O=C(NCc1cc(-c2ccc(C(F)(F)F)cc2)ncn1)[C@@H]1[C@H]2CC[C@H](C2)N1S(=O)(=O)c1ccc(F)cc1 [Example 33, (1R,3S,4S)-2-(4-fluorophenylsulfonyl)-N-((6-(4-(trifluoromethyl)phenyl)pyrimidin-4-yl)methyl)-2-azabicyclo[2.2.1]heptane-3-carboxamide] | 23 | –
O=C(NCc1cn(-c2ccc(C(F)(F)F)nc2)nc1Cl)[C@@H]1C[C@@H](F)CN1S(=O)(=O)c1ccc(F)cc1 [Example 15, (2S,4R)—N-([3-chloro-1-[6-(trifluoromethyl)pyridin-3-yl]-1H-pyrazol-4-yl]methyl)-4-fluoro-1-[(4-fluorobenzene)sulfonyl]pyrrolidine-2-carboxamide] | 30 | –
O=C(NCc1cc(-c2ccc(C(F)(F)F)cc2)ncn1)[C@@H]1C[C@@H](F)CN1S(=O)(=O)c1ccc(F)cc1 [Example 5, (2S,4R)-4-fluoro-1-(4-fluorophenylsulfonyl)-N-((6-(4-(trifluoromethyl)phenyl)pyrimidin-4-yl)methyl)pyrrolidine-2-carboxamide] | 15 | –
N#Cc1ccc(S(=O)(=O)N2C[C@H](F)C[C@H]2C(=O)NCc2cn(-c3ccc(C(F)(F)F)cc3)nc2Cl)cc1 [Example 18, (2S,4R)—N-([3-chloro-1-[4-(trifluoromethyl)phenyl]-1H-pyrazol-4-yl]methyl)-1-[(4-cyanobenzene)sulfonyl]-4-fluoropyrrolidine-2-carboxamide] | 49 | –
O=C(NCc1cc(-c2ccc(C(F)(F)F)cc2)ncn1)[C@@H]1C[C@@H](F)CN1S(=O)(=O)c1cccc(F)c1 [Example 6, (2S,4R)-4-fluoro-1-(3-fluorophenylsulfonyl)-N-((6-(4-(trifluoromethyl)phenyl)pyrimidin-4-yl)methyl)pyrrolidine-2-carboxamide] | 23 | –
N#Cc1cnc(-c2cnc(C(F)(F)F)nc2)cc1CNC(=O)[C@@H]1C[C@@H](F)CN1S(=O)(=O)c1ccc(F)cc1 [Example 189, (2S,4R)—N-([5-cyano-2-[2-(trifluoromethyl)pyrimidin-5-yl]pyridin-4-yl]methyl)-4-fluoro-1-[(4-fluorobenzene)sulfonyl]pyrrolidine-2-carboxamide] | – | 55
COc1nn(-c2ccc(C(F)(F)F)nc2)cc1CNC(=O)[C@]1(C)C[C@@H](F)CN1S(=O)(=O)c1ccc(F)cc1 [Example 125, (2S,4R)-4-fluoro-1-[(4-fluorobenzene)sulfonyl]-N-([3-methoxy-1-[6-(trifluoromethyl)pyridin-3-yl]-1H-pyrazol-4-yl]methyl)-2-methylpyrrolidine-2-carboxamide] | – | 9
O=C(NCc1cc(F)cc(-c2ccc(C(F)(F)F)nc2)c1)[C@@H]1C[C@@H](F)CN1S(=O)(=O)c1ccc(F)cc1 [Example 139, (2S,4R)-4-fluoro-1-(4-fluorophenyl)sulfonyl-N-[[3-fluoro-5-[6-(trifluoromethyl)-3-pyridyl]phenyl]methyl]pyrrolidine-2-carboxamide] | – | 16
